# ChEMBL document CHEMBL5042492, “Noncovalent CDK12/13 dual inhibitors-based PROTACs degrade CDK12-Cyclin K complex and induce synthetic lethality with PARP inhibitor” (Eur J Med Chem, 2022)
# Legend:
# CDK12/Cyclin K = CDK12/Cyclin K (Homo sapiens, UniProt Q9NYV4); assay: Inhibition of human CDK12 (696 to 1082 residues) /cyclinK (1 to 300 residues) using ac-YSPTSPpSYSPTSFpS-YSPTSPpSY-[PEG2]-RR-amid peptide as substrate in presence of ATP measured after 2 hrs by ADP-Glo kinase assay; format: protein-complex assay
# CDK12/Cyclin K, sequence (O75909 whole entry, the tested form may be a part): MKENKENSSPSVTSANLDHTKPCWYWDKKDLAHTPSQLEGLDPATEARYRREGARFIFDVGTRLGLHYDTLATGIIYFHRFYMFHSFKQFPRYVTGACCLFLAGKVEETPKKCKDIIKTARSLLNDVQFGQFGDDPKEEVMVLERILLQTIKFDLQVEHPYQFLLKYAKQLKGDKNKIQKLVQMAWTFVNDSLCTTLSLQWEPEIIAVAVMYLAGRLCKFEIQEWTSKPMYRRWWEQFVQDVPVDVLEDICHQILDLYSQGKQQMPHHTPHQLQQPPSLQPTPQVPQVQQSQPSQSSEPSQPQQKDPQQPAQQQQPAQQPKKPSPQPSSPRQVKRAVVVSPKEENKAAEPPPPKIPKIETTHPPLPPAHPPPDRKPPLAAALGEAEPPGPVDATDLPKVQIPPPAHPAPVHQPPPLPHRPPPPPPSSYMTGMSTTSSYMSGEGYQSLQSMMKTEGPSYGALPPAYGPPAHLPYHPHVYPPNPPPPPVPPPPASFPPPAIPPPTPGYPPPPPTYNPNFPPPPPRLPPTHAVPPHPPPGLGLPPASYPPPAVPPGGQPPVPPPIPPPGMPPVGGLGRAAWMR
# CDK12/Cyclin K, sequence (Q9NYV4 whole entry, the tested form may be a part): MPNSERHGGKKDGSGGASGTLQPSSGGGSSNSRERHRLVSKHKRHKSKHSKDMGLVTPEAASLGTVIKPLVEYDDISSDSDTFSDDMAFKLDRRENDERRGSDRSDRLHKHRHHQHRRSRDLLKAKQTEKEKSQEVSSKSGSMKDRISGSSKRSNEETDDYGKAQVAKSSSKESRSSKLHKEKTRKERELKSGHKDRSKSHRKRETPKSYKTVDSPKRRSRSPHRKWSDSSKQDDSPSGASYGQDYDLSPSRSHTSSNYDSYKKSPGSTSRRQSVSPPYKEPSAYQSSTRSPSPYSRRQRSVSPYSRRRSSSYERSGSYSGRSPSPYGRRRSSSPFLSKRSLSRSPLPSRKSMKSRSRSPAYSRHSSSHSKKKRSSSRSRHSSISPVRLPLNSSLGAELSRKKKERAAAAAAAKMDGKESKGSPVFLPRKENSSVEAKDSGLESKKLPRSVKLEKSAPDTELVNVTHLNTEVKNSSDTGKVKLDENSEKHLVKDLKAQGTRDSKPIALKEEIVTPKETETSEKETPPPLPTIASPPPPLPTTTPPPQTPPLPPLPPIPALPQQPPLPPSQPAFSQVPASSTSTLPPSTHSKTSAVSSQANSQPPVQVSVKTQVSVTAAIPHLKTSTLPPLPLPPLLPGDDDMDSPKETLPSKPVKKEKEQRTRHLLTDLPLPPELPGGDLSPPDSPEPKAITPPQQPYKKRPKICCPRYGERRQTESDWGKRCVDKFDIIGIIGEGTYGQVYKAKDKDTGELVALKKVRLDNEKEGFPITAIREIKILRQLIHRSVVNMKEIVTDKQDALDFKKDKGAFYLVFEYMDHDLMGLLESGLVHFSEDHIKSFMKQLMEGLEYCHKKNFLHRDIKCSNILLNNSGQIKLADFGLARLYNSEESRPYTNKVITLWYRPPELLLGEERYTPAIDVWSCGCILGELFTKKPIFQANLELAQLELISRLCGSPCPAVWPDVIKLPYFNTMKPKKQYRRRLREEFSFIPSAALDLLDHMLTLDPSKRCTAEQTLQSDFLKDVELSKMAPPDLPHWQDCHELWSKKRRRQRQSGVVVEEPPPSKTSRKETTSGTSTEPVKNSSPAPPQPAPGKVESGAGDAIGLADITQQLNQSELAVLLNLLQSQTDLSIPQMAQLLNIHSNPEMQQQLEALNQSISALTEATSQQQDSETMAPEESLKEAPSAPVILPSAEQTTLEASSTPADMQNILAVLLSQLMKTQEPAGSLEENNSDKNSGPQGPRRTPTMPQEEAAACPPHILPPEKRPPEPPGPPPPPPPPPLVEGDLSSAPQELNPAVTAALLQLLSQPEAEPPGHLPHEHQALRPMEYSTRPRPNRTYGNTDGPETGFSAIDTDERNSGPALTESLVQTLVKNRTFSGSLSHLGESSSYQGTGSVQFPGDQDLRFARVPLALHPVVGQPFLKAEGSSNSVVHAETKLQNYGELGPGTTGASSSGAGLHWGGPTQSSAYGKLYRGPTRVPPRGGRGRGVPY
# MDA-MB-231 [1] = assay: Antiproliferative activity against human MDA-MB-231 cells at 1 uM for 10 days by SRB staining based clone formation assay relative to control; format: functional; settings: MDA-MB-231, 240 h, time 10 day
# MDA-MB-231 [2] = assay: Antiproliferative activity against human MDA-MB-231 cells at 3 uM for 10 days by SRB staining based clone formation assay relative to control; format: functional; settings: MDA-MB-231, 240 h, time 10 day
IC50 (CDK12/Cyclin K),Structure (SMILES),inhibition at 1 µM (MDA-MB-231 [1]),inhibition at 3 µM (MDA-MB-231 [2])
66.4 nM,COCCOCCOc1cc2[nH]c(CNc3nc(OCC[C@@H]4CCCCN4)nc4c3ncn4C(C)C)nc2cc1F,,
,O=C(c1cc(Cc2n[nH]c(=O)c3ccccc23)ccc1F)N1CCN(C(=O)C2CC2)CC1 [OLAPARIB],12.4%,98%
